What was measured:
[1] = test system: Haemate ® Factor VIII; assay: Clotting activity of Haemate after virus inactivation; assay type: biochemical; conditions: for Activity (clotting activity): Haemate ® Factor VIII, 3 hours 37° C.
[2] = test system: PPV; assay: Inactivation of PPV, infectiousness titration; assay type: cell-based, Porcine parvovirus
[3] = test system: IBRV; assay: Inactivation of IBRV, infectiousness titration; assay type: cell-based, Infectious bovine rhinotracheitis virus; conditions: for Titer reduction / Treatment titer: 45° C.
[4] = test system: BVDV; assay: Inactivation of BVDV, infectiousness titration; assay type: cell-based, Bovine viral diarrhoea virus; conditions: Venimmun + BVDV; Acriflavine 0.001 mg/ml; 37° C.; 3 h
[5] = test system: CPV; assay: Inactivation of CPV in protein solutions, infectiousness titration; assay type: cell-based, Canine parvovirus; conditions: Acriflavine 0.001 mg/ml
[6] = target: Beriplex ® Factor II (Homo sapiens, UniProt P00734); assay: Clotting activity of Beriplex after virus inactivation; assay type: biochemical; conditions: 3 hours 37° C.
[7] = test system: PI3 virus; assay: Inactivation of PI3 virus, infectiousness titration; assay type: cell-based, Bovine parainfluenza 3 virus; conditions: 37° C.; for Virus inactivation: EME medium
[8] = test system: BPV; assay: Inactivation of BPV, infectiousness titration; assay type: cell-based, Bovine parvovirus; conditions: for Virus inactivation: BPV, 45° C.
[9] = test system: envelope-containing and nonenveloped virus species; assay type: cell-based
[10] = Beriplex + PPV, Acriflavine 0.001 mg/ml, 30° C., 0 h
[11] = Beriplex + PPV, Acriflavine 0.001 mg/ml, 30° C., 1 h
[12] = Beriplex + PPV, Acriflavine 0.001 mg/ml, 30° C., 2 h
[13] = Beriplex + PPV, Acriflavine 0.001 mg/ml, 30° C., 3 h
[14] = Beriplex + PPV, Acriflavine 0.001 mg/ml, 37° C., 3 h
[15] = Haemate + PPV, Acriflavine 0.001 mg/ml, 37° C., 3 h
[16] = Beriplex + PPV, BACI 0.001 mg/ml, 30° C., 0 h
[17] = Beriplex + PPV, BACI 0.001 mg/ml, 30° C., 1 h
[18] = Beriplex + PPV, BACI 0.001 mg/ml, 30° C., 2 h
[19] = Beriplex + PPV, BACI 0.001 mg/ml, 30° C., 3 h
[20] = Beriplex + PPV, BACI 0.01 mg/ml, 37° C., 0 h
[21] = Beriplex + PPV, BACI 0.01 mg/ml, 37° C., 1 h
[22] = Beriplex + PPV, BACI 0.01 mg/ml, 37° C., 2 h
[23] = Beriplex + PPV, BACI 0.01 mg/ml, 37° C., 3 h

For “Haemate®: Concentrate from clotting factor VIII and Von-Willebrand factor, pasteurized (Behringwerke AG)”, the “Activity decrease of clotting preparation after acridines/benzalkonium chloride inactivation, in words” value ([1]; Table 7) was “tolerable”.
For “3,6-diamino-10-methylacridinium, chloride and 3,6-acridineidiamine [Acriflavine]”, the Titer reduction [2, 10] was 0 log10/ml, the Treatment titer [2, 10] was 4.8 log10/ml and the Titer reduction [2, 11] was 1.0 log10/ml. The Treatment titer [2, 11] was 3.6 log10/ml, the Titer reduction [2, 12] was 1.7 log10/ml and the Treatment titer [2, 12] was 2.9 log10/ml. For the same compound, the Titer reduction [2, 13] was “≧3.3 log10/ml”, the Treatment titer [2, 13] was “≦1.5 log10/ml” and the Titer reduction [2, 14] was “≧3.3 log10/ml”. For the same compound, the Treatment titer [2, 14] was “≦1.5 log10/ml”, the Titer reduction [2, 15] was “≧3.8 log10/ml” and the Treatment titer [2, 15] was “≦1.5 log10/ml”. For the same compound, the Virus inactivation ([3]; 37° C., 2 hours) was 3.3 log10/ml, the Titer reduction [4] was “≧6.0 log10/ml” and the Treatment titer [4] was 0 log10/ml. For the same compound, the Titer reduction ([5]; FCS + CPV, 37° C., 3 h) was 3.5 log10/ml, the Treatment titer ([5]; FCS + CPV, 37° C., 3 h) was 3.4 log10/ml and the Titer reduction ([5]; FCS + CPV, 45° C., 0 h) was 0 log10/ml. For the same compound, the Treatment titer ([5]; FCS + CPV, 45° C., 0 h) was 6.8 log10/ml, the Titer reduction ([5]; FCS + CPV, 45° C., 1 h) was 2.0 log10/ml and the Treatment titer ([5]; FCS + CPV, 45° C., 1 h) was 4.8 log10/ml. For the same compound, the Titer reduction ([5]; FCS + CPV, 45° C., 2 h) was 3.3 log10/ml, the Treatment titer ([5]; FCS + CPV, 45° C., 2 h) was 3.5 log10/ml and the Titer reduction ([5]; FCS + CPV, 45° C., 3 h) was 4.2 log10/ml. The Treatment titer ([5]; FCS + CPV, 45° C., 3 h) was 2.8 log10/ml, the Titer reduction ([5]; Venimmun + CPV, 37° C., 3 h) was 3.0 log10/ml and the Treatment titer ([5]; Venimmun + CPV, 37° C., 3 h) was 3.9 log10/ml. For the same compound, the “Activity (clotting activity)” value ([1]; A 0.001 mg/ml) was 16.8 IU/ml, the “Activity (clotting activity)” value ([1]; A 0.002 mg/ml) was 18.9 IU/ml and the “Activity (clotting activity)” value ([6]; A 0.001 mg/ml) was 50.0 IU/ml. The “Activity (clotting activity)” value ([6]; A 0.002 mg/ml) was 48.8 IU/ml.
With Benzalkonium chloride [BACI] the Virus inactivation ([7]; BACI 0.005 mg/ml, 0-0.03 h) was “≧5.9 log10/ml”, the Virus inactivation ([7]; BACI 0.0125 mg/ml, 0-0.03 h) was 0.5 log10/ml and the Virus inactivation ([7]; BACI 0.0125 mg/ml, 1 h) was 1.3 log10/ml. The Virus inactivation ([7]; BACI 0.025 mg/ml, 0-0.03 h) was 1.4 log10/ml, the Virus inactivation ([7]; BACI 0.025 mg/ml, 1 h) was “≧5.3 log10/ml” and the Virus inactivation ([7]; BACI 0.05 mg/ml, 1 h) was “≧5.3 log10/ml”. For the same compound, the Virus inactivation ([7]; BACI 0.1 mg/ml, 0-0.03 h) was “≧5.9 log10/ml”, the Virus inactivation ([7]; BACI 0.1 mg/ml, 1 h) was “≧5.3 log10/ml” and the “Inactivation of PI3 virus, in words” value ([7]; high doses of BACI (0.1 mg/ml, 0.05 mg/ml), time needed to mix, sample and titrate) was “infectious virus was no longer detectable”. It also gave a Virus inactivation ([8]; BACI 0.01 mg/ml, 1 hour) of 0 log10/ml, a Virus inactivation ([8]; BACI 0.01 mg/ml, 2 hours) of 0 log10/ml and a Virus inactivation ([8]; BACI 0.05 mg/ml, 1 hour) of 0 log10/ml. For the same compound, the Virus inactivation ([8]; BACI 0.05 mg/ml, 2 hours) was 0 log10/ml, the “Inactivation of BPV, in words” value ([8]; test conditions of Table 2, 45° C., 1 or 2 hours) was “not inactivated” and the Titer reduction [2, 16] was 0 log10/ml. It also gave a Treatment titer [2, 16] of 4.8 log10/ml, a Titer reduction [2, 17] of 0 log10/ml and a Treatment titer [2, 17] of 4.8 log10/ml. For the same compound, the Titer reduction [2, 18] was 0 log10/ml, the Treatment titer [2, 18] was 4.8 log10/ml and the Titer reduction [2, 19] was 0 log10/ml. It also gave a Treatment titer [2, 19] of 4.6 log10/ml, a Titer reduction [2, 20] of 0 log10/ml and a Treatment titer [2, 20] of 4.8 log10/ml. The Titer reduction [2, 21] was 0 log10/ml, the Treatment titer [2, 21] was 4.6 log10/ml and the Titer reduction [2, 22] was 0 log10/ml. For the same compound, the Treatment titer [2, 22] was 4.6 log10/ml, the Titer reduction [2, 23] was 0.2 log10/ml and the Treatment titer [2, 23] was 4.6 log10/ml. The “Activity (clotting activity)” value ([1]; BACI 0.02 mg/ml) was 20.7 IU/ml, the “Activity (clotting activity)” value ([6]; BACI 0.02 mg/ml) was 61.3 IU/ml and the “Virus species inactivated, in words” value [9] was “only envelope-containing viruses can be, inactivated”.
`CCOc1ccc2nc3cc(N)ccc3c(N)c2c1` [Ethacridine lactate] showed a Titer reduction ([3]; 0 h) of 0 log10/ml, a Treatment titer ([3]; 0 h) of 6.5 log10/ml and a Titer reduction ([3]; 1 h) of 3.7 log10/ml. For the same compound, the Treatment titer ([3]; 1 h) was 2.0 log10/ml, the Titer reduction ([3]; 2 h) was “≧2.8 log10/ml” and the Treatment titer ([3]; 2 h) was “≦1.5 log10/ml”.

From patent US6831086B1, “Process for the inactivation of viruses with the aid of acridine derivatives” (ZLB Behring GmbH, priority 1994, dated 2004)
